{
  "source": "patent US10584156B2",
  "about": "“Insulin analogues with a glucose-regulated conformational switch” (CASE WESTERN RESERVE UNIVERSITY, priority 2015, dated 2020)",
  "test": "EDTA cobalt-sequestration assay of R6 insulin hexamer disassembly, with or without glucose",
  "format": "physicochemical",
  "conditions": "25 mM glucose vs none, pH 7.4, large excess of EDTA, phenol-stabilized Co^2+ R6 hexamer",
  "description": "Glucose-responsive rates of disassembly were investigated using a spectroscopy assay in which the visible absorption spectrum of a cobalt (Co^2+)-substituted insulin hexamer was obtained in the presence of phenol as an R6 hexamer.\nThis band arises front the unfilled d-shell electrons of the cobalt ion and is a specific signature of a tetrahedral coordination environment. Addition of a large excess of the chelating agent ethylene-diamine-tetra-acetic acid (EDTA) leads to progressive sequestration of the metal ion (in a colorless octahedral complex) and so provides a rapid and convenient probe of the kinetics of hexamer disassembly.\nTo this end, insulin analogues were made 0.6 mM in a buffer containing 50 mM Tris-HCl (pH 7.4), 50 mM phenol, 0.2 mM CoCl2, and 2 mM NaSCN in the absence of glucose or in the presence of 25 mM glucose. The sample pH was in each case 7.4, and samples were incubated overnight at room temperature prior to the studies to ensure that a conformational equilibrium was reached. Spectra (400-750 nm) were obtained to monitor tetrahedral Co^2+ coordination with its signature d-d absorption band at or near 574 nm. To determine the rate of Co^2+ release from the hexamers, metal-ion sequestration was initiated at 33° C. […] Attenuation of the 574-nm absorption band was monitored on a time scale of seconds to hours. […]",
  "data": [
    {"substance": "wild-type human insulin: Human insulin, A chain SEQ ID NO: 2 and B chain SEQ ID NO: 3", "values": [
      {"measurement": "difference in rate of hexamer disassembly (loss of R-state-specific d-d band) in presence versus absence of glucose", "value": "No difference was observed"},
      {"measurement": "difference in rate of hexamer disassembly (loss of R-state-specific d-d band) in presence versus absence of glucose", "setting": "listed as Wild-type insulin", "value": "the same rate of loss"}
    ]}
  ]
}
